From patent US9572760B2, “Uses of compounds and mixtures from Antrodia cinnamomea mycelia” (Simpson Biotech Co., Ltd., priority 2013, dated 2017)

Experiments:
[1] = tested on: pre-fibrotic genes including α-SMA, TIMP, Collagen type I and TGF-β1; test: Real-time RT-PCR of pre-fibrotic gene expression in liver of cirrhotic animals; type: in vivo, Wistar rats; conditions: compound B 7 mg/kg, compound C 14 mg/kg, ACM 320 mg/kg
Protocol: Sample tissues of rat livers were measured about 0.5×0.5 cm in area. Each of tissue was homogenized in 1 mL of TRIzol buffer (Invitrogen, Carlsbad, Calif., USA) with a motorized pestle, and then mixed with 0.5 mL chloroform/isoamyl alcohol (24:1), and was centrifuged at 12,000×g for 10 min at 4° C. The supernatant was transferred to a fresh tube, and isopropanol was added, mix well and stored at −80° C. overnight. The reaction mixture was centrifuged at 12,000×g for 30 min at 4° C. to produce a rude RNA pallet, the pellet was washed with 70% ethanol and air-dried. The concentrations of total RNA were measured by absorbance at 260 nm using a NanoDrop ND-1000 (NanoDrop, USA). Reverse transcription reaction was performed using a commercially available set of High Capacity RNA-to-cDNA Kit (Applied Biosystems, USA). cDNA was prepared from 2 μg of total RNA per 20 μl reaction, according to the manufacturer's instructions—37° C. for 60 minutes, 95° C. for 5 minutes, and hold at 4° C. The resulting cDNA was to a final concentration of 100 ng/μl and constituted a matrix in further experiments. Amplification and detection the gene expression by real-time PCR were performed using StepOne plus Real-time PCR System (Applied Biosystems, USA). Samples were assayed in a 10 μl reaction mixture containing 2 μl of template DNA, 5 μl of 2× TaqMan PCR Master Mix (Applied Biosystems, Life Technologies, Foster City, Calif., USA), 0.5 μl of 20× assay mix containing probe, forward and reverse primer (Applied Biosystems, Life Technologies, Foster City, Calif., USA), whereby qPCR targets with the following information were used: (a) Rat α-SMA, Assay ID Rn01759928_g1, (b) Rat TIMP, Assay ID Rn00587558_m1, (c) Rat TGF-β1, Assay ID Rn00572010_m1, (d) Rat Collagen I, Assay ID Rn 01463838_m1, (e) Rat CuZnSOD, Assay ID Rn00566938_m1, (f) Rat MnSOD, Assay ID Rn00690587_g1, (g) Rat Catalase, Assay ID Rn00560930_m1, (h) Rat Glutathione peroxidase, Assay ID Rn00577994_g1, (i) Rat NADPH oxidase, Assay ID Rn00585380_m1 and (j) Rat GAPDH, Assay ID Rn1462662_g1. To control variation in mRNA concentration, all results were normalized to the housekeeping gene, GAPDH. Relative quantitation was performed using the comparative ΔΔCt method according to the manufacture's instructions. The cycling conditions used were as follows: 50° C. for 2 min, 95° C. for 10 min followed by 40 cycles of 95° C. for 15 s and 60° C. for 1 min each.

α-SMA and TGF-β1 = test: Western blot of α-SMA and TGF-β1 in rabbit ear scar tissue; type: in vivo, New Zealand white rabbits; conditions: 1% w/v topical; for level of TGF-β1 expression (Western blot): day 14, compared with the control groups; for levels of α-SMA expression (Western blot): relative to the control group
Protocol: The rabbit ear model of hypertrophic scarring was established. In brief, 12 New Zealand white rabbits, weighing 2.5 to 3.0 kg, were prepared for wounding under sterile conditions. Four 1 cm full thickness circular wounds were created down to the cartilage on the ventral side of each ear using a 1 cm punch biopsy. The perichondrial membrane was then dissected off the cartilage using a surgical blade. The test agents including compound B, C and ACM ethanol extract were applied to the wounds of the experimental group ([…] to each wound) every day in concentrations of 1% w/v for 14 days, while the control group received equal amounts of 1% w/v saline.
The scar tissues were lysed; then the protein samples were denatured and then separated on 10.6% polyacrylamide gels, and transferred to the polyvinylidene difluoride membrane. The membranes were incubated in TBS containing 5% nonfat milk and 0.05% Tween-20 for 1 h at room temperature and blotted with primary antibodies (dilution 1:300) at 4° C. overnight. The membranes were washed with TBST for 15 min the next day. Subsequently, the membranes were incubated with horseradish peroxidase-conjugated affinipure goat anti-rabbit antibody (dilution 1:3000) for 1 h at room temperature and washed with TBST for 21 min. The membranes were then detected using ECL. The western blot results were further analyzed with Quantity One software 4.1.1 (Bio-Rad, Hercules, Calif.)

HSC = HSC apoptosis by cell death detection ELISA; type: cell-based; conditions: 24-80 μM; 24 h, 48 h and 72 h
Protocol: Apoptosis was detected with a sandwich immunoassay system using a cell death detection ELISA kit (Roche Diagnostic Inc.). Roche's Cell Death Detection ELISA kit qualitatively and quantitatively detects the amount of cleaved DNA/histone complexes (nucleosomes) in a given sample using a sandwich-enzyme-immunoassay-based method. The cells (1×10^4 cells/well) were seeded in 100 μl medium in a 96-well plate (Nunc, Denmark) and cultured for 24 h to allow the cells to attach and then treated with three different concentrations (8 μM, 24 μM and 80 μM) of either Compound A, B, C and D for 24 h, 48 h and 72 h and the plates were incubated in 37° C. After incubation, the 96 well plates were centrifuged for 10 min at 200×g and removed supernatant and discard, then added 200 μl of lysis buffer per well using multipipetman and incubated 30 min at room temperature, microplates were centrifuged the lysate at 200×g for 10 min. After the centrifuge, 20 μl of the supernatant was transferred into the streptavidin-coated microplate, then added 80 μl of immunoreagent to each well. The microplate was covered with an adhesive foil and incubated on a shaker under gentle shaking for 2 hour at room temperature. After the incubation period, microplates were washed three times with 250-300 μl incubation buffer and 100 μl ABTS solution was added and incubated for 30 min or until color is sufficient for photometric. ABTS Stop solution was added and absorbance of the samples was measured using ELISA reader at 405 nm, reference wavelength at 490 nm.

SMILES	Collagen type I gene expression in liver [1]	TGF-β1 gene expression in liver [1]	TIMP gene expression in liver [1]	α-SMA gene expression in liver [1]	level of TGF-β1 expression (Western blot) (α-SMA and TGF-β1)	levels of α-SMA expression (Western blot) (α-SMA and TGF-β1)	apoptosis of HSC (cell death detection assay) (HSC)
CC(C)=CCOc1ccc(C2=C(CC(C)C)C(=O)N(O)C2=O)cc1 [Compound C, 3-isobutyl-4-[4-(3-methyl-2-butenyloxy)phenyl]-1H-pyrrol-1-ol-2,5-dione]	reduced significantly	reduced significantly	reduced significantly	reduced significantly	significantly decreased	decreased	apoptosis of HSC
CC(C)=CCOc1ccc(C2=C(CC(C)C)C(=O)NC2=O)cc1 [Compound B, 3-isobutyl-4-[4-(3-methyl-2-butenyloxy)phenyl]-1H-pyrrol-2,5-dione]	reduced significantly	reduced significantly	reduced significantly	reduced significantly	significantly decreased	decreased	apoptosis of HSC
